Like-named read-outs stand apart in the source and are kept apart here.
What was measured:
anti-nicotine antibodies = assay type: binding
[1] = liver, cited from earlier work
[2] = five BSA digoxin immunised rabbits, cited from earlier work
[3] = antibodies elicited by Nic-O-Su-Cholera Toxin B conjugates, relative to nicotine

Compound O=C(O)c1cccnc1 [nicotinic acid] has an immunologic cross-reactivity (anti-nicotine antibodies) of 0.09%.
In the case of CN1CCCC1c1cccnc1 (centres unmarked) [nicotine], the “nicotine transformed to nicotine N'-oxide” value ([1]; flavin containing monooxygenase 3) is given as 4-7% and the “nicotine glucuronidation, share of metabolized nicotine” value ([1]; uridine diphosphate-glucuronosyltransferase) is given as 3-5%.
With c1cncc([C@@H]2CCCN2)c1 [nornicotine] the immunologic cross-reactivity (anti-nicotine antibodies; [3]) was 4%.
In the case of CN1C(=O)C[C@@H](C(=O)O)[C@@H]1c1cccnc1 (relative stereo) [trans-4-cotininecarboxylic acid], the immunologic cross-reactivity (anti-nicotine antibodies; [3]) is reported as 0.19%.
In the case of C[C@H]1O[C@@H](O[C@H]2[C@@H](O)C[C@H](O[C@H]3[C@@H](O)C[C@H](O[C@H]4CC[C@@]5(C)[C@H](CC[C@@H]6[C@@H]5C[C@@H](O)[C@]5(C)[C@@H](C7=CC(=O)OC7)CC[C@]65O)C4)O[C@@H]3C)O[C@@H]2C)C[C@H](O)[C@@H]1O [digoxin], the “mean serum concentration of digoxin” value ([2]; at one year) is listed as 85 nanogram/ml and the “mean serum concentration of digoxin” value ([2]; initially) is listed as 8200 nanogram/ml.
With CN1C(=O)CC[C@H]1c1cccnc1 [cotinine] the immunologic cross-reactivity (anti-nicotine antibodies; [3]) was 1.1%.

From patent US20060111271A1 (priority 2004, published 2006)
